Entries after “also recorded” stand apart in the source; their conditions may differ. Like-named read-outs stand apart in the source and are kept apart here.
Experiments:
[1] = tested on: Meloidogyne incognita and Meloidogyne hapla; assay type: in vivo
Description: (§1) Test method: A peracetic acid stock solution containing 5% PAA and 22% H2O2 (VigorOx® from PeroxyChem, LLC) was used for methods that specified 1750 ppm PAA. A peracetic acid stock solution containing 15% PAA and 10% H2O2 (VigorOx SP-15) was used for methods that specified 3525 ppm PAA. A stock solution of formaldehyde (37% in 10-15% methanol) was used to prepare a 1% aqueous solution of formaldehyde (with about 0.3% methanol).
(§2) Solutions were applied as the soil drench with an application volume of 12 kL/ha. The Test Medium was: pasteurized 50:50 Loamy sand or pasteurized sand. The efficacy of PAA was evaluated in three different Greenhouse Test Assays: 1) the Tomato Root-knot Galling Index Assay using the nematode species Meloidogyne incognita and Meloidogyne hapla; 2) the Root-knot Nematode Egg Hatch Assay using the nematode species Meloidogyne incognita and Meloidogyne hapla; and 3) assay of levels of soil bacteria using Bacillus mycoides.

Bacillus mycoides = assay type: cell-based; details: treated four days, soil
Description: as §1, §2
Soil was inoculated with Bacillus mycoides, incubated for five days and then treated with formaldehyde or […] for four days. Bacteria were collected from soil and their levels were evaluated based on colony forming units.

[2] = tested on: Meloidogyne incognita and Meloidogyne hapla; assay: Root-knot Nematode Egg Hatch Assay (soil drench); assay type: in vivo; details: for % Egg Hatching: Example 3, 1 ml/cm^2, sand-loam soil, relative to distilled water control (100)
Description: as §1, §2
The Root-knot Nematode Egg Hatch Assay was carried out essentially as follows. Eggs were collected from roots of infected tomato plants. To release the eggs, the egg masses were placed in a solution of sodium hypochlorite and manually shaken. The solution was centrifuged and the eggs washed with distilled water. Eggs were kept in the dark until needed for the experiments and used in the same day of collection. The experiments were performed in pots filled with pasteurized soil inoculated with about several thousands of individual eggs and then drenched with each treatment solution and controls. The treated soils were covered and incubated for the time periods indicated below. Following the incubation period, the soils were transferred to collect hatched J2 (second stage juveniles). The collected material was observed under the microscope and the number of J2 counted.
Seedlings were inoculated and cultured in pasteurized Pemberton soil for 14 days. Seedlings were then treated with either formaldehyde, 1750 ppm PAA or 3525 ppm PAA for 13 days. Nematode eggs were extracted from infected roots and their ability to hatch was evaluated.
Test method: A peracetic acid stock solution containing 15% PAA and 10% H2O2 (VigorOx SP-15) was used for methods that specified 3750, 5000, 7500, 10000 ppm PAA. Capryleth-9 carboxylic acid (C9CA) was used at concentrations of 5000 and 10000 ppm. A stock solution of formaldehyde (37% in 10-15% methanol) was used to prepare a 1% aqueous solution of formaldehyde. The final methanol concentration was about 0.3%.
Solutions were applied as a soil drench with an application volume of 12 kL/ha. The Test Medium was pasteurized Pemberton loamy soil, sand or pasteurized sand. The efficacy of PAA was evaluated with the Root-Knot Nematode Egg Hatch Assay using the nematode species Meloidogyne incognita and Meloidogyne hapla.
Seedlings were inoculated and cultured for 22 days and then treated for 21 days with either PAA alone at various concentrations, C9CA alone at various concentrations, or a combination of PAA and C9CA. Nematode eggs were extracted from infected roots and their ability to hatch was evaluated.
Test method: A peracetic acid stock solution containing 15% PAA and 10% H2O2 (VigorOx SP-15) was used for methods that specified 3500 and 20,000 ppm PAA. Capryleth-9 carboxylic acid (C9CA) was used at concentrations of 250 and 10000 ppm.
Solutions were applied as a soil drench with an application volume of 1 ml/cm^2. The Test Medium was pasteurized sand-loam soil. The efficacy of PAA was evaluated with the Root-knot Nematode Egg Hatch Assay using the nematode species Meloidogyne incognita and Meloidogyne hapla.
The viability of the root-knot nematodes eggs used for each set of experiments in this example was also evaluated. Eggs were incubated with the different solutions in glass dishes in the dark at 25° C. They were observed daily under the microscope to confirm that the eggs were viable and able to hatch in water after 18 hr/24 hr of incubation.

[3] = tested on: Bacillus subtilis ATCC 19659; assay: Sporicidal assay in soil; assay type: cell-based; details: 3525 ppm PAA; 1 hour, 2 and 7 days treatment
Protocol: Test method: A peracetic acid stock solution containing 15% PAA and 10% H2O2 (VigorOx SP-15) was used for methods that specified 3525 ppm PAA. Deionized water was used as a control.
Solutions were applied as the soil drench with an application volume of 1.5 ml/cm^2. The Test Medium was pasteurized Pemberton soil. The spore inoculum was Bacillus subtilis ATCC 19659. Spores were counted as follows: Soil was pasteurized to remove background microbial content. The soil was distributed into test cells. Concentrated Bacillus subtilis ATCC 19659 spore suspension was diluted in Butterfield's buffer and used as the inoculum in this test. For titer determination, the inoculum was diluted in Butterfield's buffer and plated on Petrifilm APC. In order to test for antimicrobial efficacy following treatments, soil was scooped from the cell and measured into a sterile plastic centrifuge tube. Deionized water was then added to each soil sample. The tubes were then capped, shaken to suspend soil, and vortexed at maximum speed using the lab vortex. The samples were allowed to settle for several seconds, and then 2 mL of fluid was removed from the tube. One ml of the removed sample was diluted in 9 mL Butterfield's buffer. The remainder of the removed sample was plated onto Petrifilm APC. […] The plates were all incubated at 30±2° C. for 2-5 days and then colonies on the plates were counted.

[4] = tested on: Aspergillus niger ATCC 16404; assay: Fungicidal assay in soil; assay type: cell-based
Protocol: Test method: A peracetic acid stock solution containing 15% PAA and 10% H2O2 (VigorOx SP-15) was used for methods that specified 3500 and 20,000 ppm PAA. Capryleth-9 carboxylic acid (C9CA) was used at concentrations of 5000 and 30,000 ppm.
Solutions were applied as a soil drench with an application volume of 1.5 ml/cm^2. The Test Medium was pasteurized Pemberton soil. The spore inoculum was Aspergillus niger ATCC 16404. The fungicidal activity of the compositions was evaluated as follows: Soil was pasteurized to remove background microbial content. The soil was the filled into test cells. Aspergillus niger ATCC 16404 was grown on Potato Dextrose Agar (PDA) plates for 5 days at 35° C. A culture for test was prepared by washing a plate with Butterfield's buffer, grinding in a sterile tissue grinder, and filtering through a cell filter to remove hyphae and debris. The suspension was diluted 1:100 in Butterfield's buffer and was added to the soil as the inoculum. The inoculum was enumerated on Petrifilm APC to determine the titer. In order to analyze antimicrobial efficacy following the treatments, soil was scooped from the cell and weighed into a sterile plastic cup. Sterile deionized water was added to the cup using a serological pipette. The cups were then capped, shaken to suspend soil, and vortexed at maximum speed using the lab vortex. The samples were allowed to settle for several seconds, and then 2 mL of fluid was removed from the tube. One ml of the removed fluid was diluted in 9 mL Butterfield's buffer. The remaining removed fluid was plated onto Petrifilm Petrifilm YM. The diluted sample was further serially diluted and plated to 10^−3 on YM. The plates were all incubated at 35±2° C. for 3 to 4 days and colonies were counted.

C=O [Formaldehyde, formaldehyde, reference compound]
Root-knot Galling Index ([1]; in vivo): 2
% Reduction in population (CFU's) (Bacillus mycoides; at 1%): 42.5%
% Reduction of J2 Population ([2]; in vivo): 60%
% Reduction of J2 population ([2]; in vivo): 78%

CC(=O)OO [PAA, peracetic acid]
bacterial spores capable of giving rise to viable colonies recovered [3]: no bacterial spores capable of giving rise to viable colonies were recovered
Root-knot Galling Index ([1]; 1750 ppm PAA, soil drench 12 kL/ha, treated 27 days, scale 0=no galling to 10=severe galling): only a modest reduction
Log10 CFU ([4]; 3500 ppm PAA, 1 hour): 3.2 Log10 CFU
Log10 CFU ([4]; 3500 ppm PAA, 24 hours): 0.0 Log10 CFU
Log10 Reduction ([4]; 3500 ppm PAA, 24 hours): completely eliminated; also recorded: Total kill
elimination of Aspergillus niger ([4]; 7000 ppm PAA, one hour of treatment): complete elimination
Log10 CFU ([4]; 7500 ppm PAA, 1 hour): 0.0 Log10 CFU
Log10 Reduction ([4]; 7500 ppm PAA, 1 hour): Total kill
Log10 CFU ([4]; 7500 ppm PAA, 24 hours): 0.0 Log10 CFU
Log10 Reduction ([4]; 7500 ppm PAA, 24 hours): Total kill
% Reduction in population (CFU's) (Bacillus mycoides; 1750 ppm PAA): 47.5%
% Reduction of J2 population ([2]; Example 1, 1750 ppm PAA, 12 kL/ha, treated 13 days, Pemberton soil): did not reduce
% Reduction of J2 population ([2]; Example 1, 3525 ppm PAA, 12 kL/ha, treated 13 days, Pemberton soil): 51%
% Reduction of J2 Population ([2]; Example 2, 5000 ppm PAA, 12 kL/ha, 21 days after treatment): 20%
% Reduction of J2 Population ([2]; Example 2, 10000 ppm PAA, 12 kL/ha, 21 days after treatment): 28%
% Egg Hatching ([2]; 20000 ppm PAA): 53%

Capryleth-9 Carboxylic Acid [C9CA]
% Reduction of J2 Population ([2]; Example 2, 10000 ppm C9CA, 12 kL/ha, 21 days after treatment): 10%
% Egg Hatching ([2]; 250 ppm C9CA): 66%

— patent US20180103638A1, “SOIL TREATMENT” (PeroxyChem LLC, priority 2016, published 2018)
